Laboratory results from PubChem BioAssay AID294 (DTP/NCI, 2004).
Several values for one entry are separate records, joined by “and”; a condition that tells them apart may be missing. Equal entries are not always repeated.

Tested on: MX-1 breast xenograft, nude mice, tumor weight change
Assay: NCI In Vivo Anticancer Drug Screen. Data for tumor model Human Mammary Carcinoma MX-1 Xenograft (subcutaneous) in NU/NU Swiss (nude) mice
Settings: endpoint: optimum tumor weight change, higher = larger tumour
Experimental: The antitumor activity of compounds was measured in mice bearing transplantable tumors. Survival or tumor size were measured and the results are expressed as the measurement made in the treated group (T) divided by the measurement made in the vehicle treated control group (C). The tumor model used in this assay is Human Mammary Carcinoma MX-1 Xenograft (subcutaneous) in NU/NU Swiss (nude) mice

[1] = dose: 200.0 mg/kg/injection, schedule: Q04DX003 (ip), vehicle: suspension in saline
[2] = dose: 400.0 mg/kg/injection, schedule: Q04DX003 (ip), vehicle: suspension in saline
[3] = dose: 200.0 mg/kg/injection, schedule: Q04DX003 (ip), vehicle: saline
[4] = dose: 25.0 mg/kg/injection, schedule: Q04DX003 (ip), vehicle: Klucel (hydroxypropylcellulose) (HPC)
[5] = dose: 100.0 mg/kg/injection, schedule: Q04DX003 (ip), vehicle: Klucel (hydroxypropylcellulose) (HPC)
[6] = dose: 100.0 mg/kg/injection, schedule: Q04DX003 (ip), vehicle: saline
[7] = dose: 50.0 mg/kg/injection, schedule: Q04DX003 (ip), vehicle: Klucel (hydroxypropylcellulose) (HPC)
[8] = dose: 200.0 mg/kg/injection, schedule: Q04DX003 (ip), vehicle: Klucel (hydroxypropylcellulose) (HPC)

N=c1ccn2c(n1)OC1C(O)C(CO)OC12 (stereo unspecified)
T/C [1]: 65 % of control
T/C [2]: 65 % of control
T/C (dose: 800.0 mg/kg/injection, schedule: Q04DX003 (ip), vehicle: suspension in saline): 47 % of control

O=CC(S)CO (stereo unspecified)
T/C [3]: 61 % of control

N/C(=N\O)c1cn(C2OC(CO)C(O)C2O)c2ncnc(N)c12 (stereo unspecified)
T/C (dose: 5.0 mg/kg/injection, schedule: Q04DX003 (ip), vehicle: Klucel (hydroxypropylcellulose) (HPC)): 109 % of control
T/C (dose: 10.0 mg/kg/injection, schedule: Q04DX003 (ip), vehicle: Klucel (hydroxypropylcellulose) (HPC)): 80 % of control
T/C (dose: 20.0 mg/kg/injection, schedule: Q04DX003 (ip), vehicle: Klucel (hydroxypropylcellulose) (HPC)): 82 % of control

CCOC(=O)C1C2OC(=O)C(C(=O)C2CN(CCCl)CCCl)C1C1CC=C(CC2=CCC(C3C4C(=O)OC(C(CN(CCCl)CCCl)C4=O)C3C(=O)OCC)CC2)CC1 (stereo unspecified)
T/C [4]: 58 % of control
T/C [5]: 35 % of control

N=C(N)Sc1ccccn1
T/C (dose: 50.0 mg/kg/injection, schedule: Q04DX003 (ip), vehicle: saline): 106 % of control
T/C [6]: 77 % of control
T/C [3]: 60 % of control

Cc1cc(N(CCOS(C)(=O)=O)CCOS(C)(=O)=O)ccc1C=Nc1ccc(-c2nc(Cc3ccccc3)sc2C)cc1
T/C [7]: 46 % of control
T/C [5]: -84 % of control
T/C [8]: -73 % of control

CN(C)N=Nc1cn[nH]c1C(N)=O
T/C [7]: 100 % of control
T/C [5]: 98 % of control
T/C [8]: 71 % of control
T/C (dose: 400.0 mg/kg/injection, schedule: Q04DX003 (ip), vehicle: Klucel (hydroxypropylcellulose) (HPC)): 82 % of control

O=[N+]([O-])/C=C\c1ccc2c(c1)OCO2
T/C [7]: 83 % of control
T/C [8]: 81 % of control

CN1N=C(N)c2cn(C3OC(COP(=O)(O)O)C(O)C3O)c3ncnc1c23 (stereo unspecified)
T/C (dose: 25.0 mg/kg/injection, schedule: Q04DX003 (ip), vehicle: water): 102 % of control

ClCC[N+]12CC[N+](CCCl)(CC1)C2
T/C (dose: 100.0 mg/kg/injection, schedule: Q04DX003 (ip), vehicle: saline with Tween-80): 60 % of control
T/C (dose: 200.0 mg/kg/injection, schedule: Q04DX003 (ip), vehicle: saline with Tween-80): 56 % of control
T/C (dose: 200.0 mg/kg/injection, schedule: Q04DX003 (ip), vehicle: water): 51 % of control
T/C (dose: 400.0 mg/kg/injection, schedule: Q04DX003 (ip), vehicle: saline with Tween-80): 59 % of control
T/C (dose: 400.0 mg/kg/injection, schedule: Q04DX003 (ip), vehicle: water): 53 % of control
T/C (dose: 800.0 mg/kg/injection, schedule: Q04DX003 (ip), vehicle: saline with Tween-80): 31 % of control
T/C (dose: 1600.0 mg/kg/injection, schedule: Q04DX003 (ip), vehicle: saline with Tween-80): 28 % of control

CC(C)=CCNc1ncnc2c1ncn2C1OC(CO)C(O)C1O (stereo unspecified)
T/C [1]: 39 % of control
T/C [2]: 77 % of control

CN(CO)c1nc(N(C)CO)nc(N(C)CO)n1
T/C (dose: 25.0 mg/kg/injection, schedule: Q01DX005 (ip), vehicle: saline): 3 % of control and 16 % of control
T/C (dose: 25.0 mg/kg/injection, schedule: Q04DX005 (ip), vehicle: saline): 45 % of control and 58 % of control
T/C (dose: 50.0 mg/kg/injection, schedule: Q01DX005 (ip), vehicle: saline): -7 % of control and 4 % of control
T/C (dose: 100.0 mg/kg/injection, schedule: Q01DX005 (ip), vehicle: saline): -97 % of control and -91 % of control
T/C (dose: 100.0 mg/kg/injection, schedule: Q07DX005 (ip), vehicle: saline): 24 % of control and 28 % of control
T/C (dose: 200.0 mg/kg/injection, schedule: Q01DX005 (ip), vehicle: saline): -94 % of control
T/C (dose: 200.0 mg/kg/injection, schedule: Q04DX005 (ip), vehicle: saline): -87 % of control and -82 % of control
T/C (dose: 200.0 mg/kg/injection, schedule: Q07DX005 (ip), vehicle: saline): -96 % of control

COC(OC(CO)C(O)S(=O)(=O)O)C(O)S(=O)(=O)O (stereo unspecified)
T/C [4]: 83 % of control
T/C [7]: 80 % of control
T/C [5]: 62 % of control
T/C [6]: 63 % of control
T/C [3]: 74 % of control
T/C (dose: 400.0 mg/kg/injection, schedule: Q04DX003 (ip), vehicle: saline): 68 % of control
T/C (dose: 800.0 mg/kg/injection, schedule: Q04DX003 (ip), vehicle: saline): 47 % of control
